Source: US7018996B2, “Antibiotics AW998A, AW998B, AW998C and AW998D” (Wyeth Holdings Corporation, priority 2002, dated 2006)
Converted amounts (≈) assume the structure as drawn. Read-outs that look alike come from different tables or passages of the source. Bridge positions count the residues as written; N and C are the ends. Square brackets hold non-standard residues; d marks the D form. Peptide text beside a SMILES is read from it. * marks the point of attachment. Tetradecenoyl(2E,13-Me) = CC(C)CCCCCCCCC/C=C/C(=O)*; X1 = CC(C)CCCCCCCC/C=C/C(=O)*; Pip = O=C(O)[CH]1CCCCN1; Dap = NC[CH](N)C(=O)O

Columns and labels:
Type in all cases: cell-based
[1] = tested on: H. influenzae GC 6896 <> (ATTC); experiment: MIC, broth dilution, H. influenzae GC 6896 (ATTC); conditions: Haemophilus influenzae, read-out: Antimicrobial Activity (MIC)
Method: (§1) The minimum inhibitory concentration (MIC), the lowest concentration of the antibiotic which inhibits growth of the test organism, is determined by the broth dilution method using Muller-Hinton II […] (Baltimore Biological Laboratories) following the recommendations of the National Committee for Clinical Laboratory Standards [Methods for dilution antimicrobial susceptibility tests for bacteria that grow aerobically, approved standard M7-A2, National Committee for Clinical Laboratory Standards, Villanova, Pa.].
(§2) An inoculum level of 5×10^5 CFU/mL, and a range of antibiotic concentrations (64–0.06 μg/mL) is used. The MIC is determined after the microtiter plates are incubated for 18 hours at 35° C. in an ambient air incubator. The test organisms include a spectrum of Gram-positive bacteria comprised of Staphylococcus sp., Streptococcus sp. and Enterococcus sp.
(§3) The test organisms also include a spectrum of Gram-negative bacteria comprised of E. coli GC, M. catarrhalis and H. influenzae.
(§4) The in vitro antibacterial activity of AW998A, AW998B, AW998C and AW998D is determined against a spectrum of Gram-positive and Gram-negative bacteria by a standard broth dilution method. Serial dilution of the compounds are made in Mueller-Hinton broth and inoculated with a bacterial suspension. The lowest concentration of compound that inhibited the growth of a bacterial strain after 18 hours of incubation at 35° C. is reported as the minimal inhibitory concentration (MIC) for that strain.

S. pneumoniae GC 1894 = experiment: MIC, broth dilution, S. pneumoniae GC 1894; conditions: Streptococcus pneumoniae, GC1894, 18 h, 18 hours at 35° C., read-out: Antimicrobial Activity (MIC)
Method: as §1, §2, §4

[2] = tested on: B. subtilis GC 6344 (168); experiment: MIC, broth dilution, B. subtilis GC 6344 (168); conditions: Bacillus subtilis, 18 hours at 35° C., read-out: Antimicrobial Activity (MIC)
Method: as §1, §2, §4

S. aureus GC 2216 (ATCC) = experiment: MIC, broth dilution, S. aureus GC 2216 (ATCC); conditions: Staphylococcus aureus, 18 hours at 35° C., read-out: Antimicrobial Activity (MIC)
Method: as §1, §2, §4

[3] = tested on: E. faecalis GC 4555 (ATCC); experiment: MIC, broth dilution, E. faecalis GC 4555 (ATCC); conditions: Enterococcus faecalis, 18 hours at 35° C., read-out: Antimicrobial Activity (MIC)
Method: as §1, §2, §4

E. coli GC 4559 (wt) = experiment: MIC, broth dilution, E. coli GC 4559 (wt); conditions: Escherichia coli, read-out: Antimicrobial Activity (MIC)
Method: as §1, §2, §3, §4

E.coil GC 4560 (imp) = experiment: MIC, broth dilution, E.coil GC 4560 (imp); conditions: Escherichia coli, 18 h, read-out: Antimicrobial Activity (MIC)
Method: as §1, §2, §3, §4

[4] = tested on: C. albicans GC 3066 (Yeast); experiment: MIC, broth dilution, C. albicans GC 3066 (Yeast); conditions: Candida albicans, read-out: Antimicrobial Activity (MIC)
S. aureus GC 1131 (MRSA) = experiment: MIC, broth dilution, S. aureus GC 1131 (MRSA); conditions: Staphylococcus aureus, 18 hours at 35° C., read-out: Antimicrobial Activity (MIC)
Method: as §1, §2, §4

[5] = tested on: S. aureus GC 4543 (Smith); experiment: MIC, broth dilution, S. aureus GC 4543 (Smith); conditions: Staphylococcus aureus, 18 hours at 35° C., read-out: Antimicrobial Activity (MIC)
Method: as §1, §2, §4

[6] = tested on: M. catarrhalis GC 6907* (clinical); experiment: MIC, broth dilution, M. catarrhalis GC 6907 (clinical); conditions: Moraxella catarrhalis, read-out: Antimicrobial Activity (MIC)
Method: as §1, §2, §3, §4

[7] = tested on: E. faecalis GC 2242 (VRE); experiment: MIC, broth dilution, E. faecalis GC 2242 (VRE); conditions: Enterococcus faecalis, 18 hours at 35° C., read-out: Antimicrobial Activity (MIC)
Method: as §1, §2, §4

[8] = S. pneumoniae GC 1894* (5% LHB)

Row | Structure (SMILES) | MIC ([1]; 18 h) [mg/L] | MIC (S. pneumoniae GC 1894; [8]) [mg/L] | MIC (S. pneumoniae GC 1894; S. pneumoniae GC 1894+ (THY)) [mg/L] | MIC [2] [mg/L] | MIC (S. aureus GC 2216 (ATCC)) [mg/L] | MIC [3] [mg/L] | MIC (E. coli GC 4559 (wt); 18 h) [mg/L] | MIC (E.coil GC 4560 (imp)) [mg/L] | MIC ([4]; 18 h) [mg/L] | MIC (S. aureus GC 1131 (MRSA)) [mg/L] | MIC [5] [mg/L] | MIC ([6]; 18 h) [mg/L] | MIC [7] [mg/L] | MIC ([1]; H. influenzae GC 6896 <> (ATTC), 18 hours at 35° C.) [mg/L] | MIC (E. coli GC 4559 (wt); E. coli GC 4559 (wt), 18 hours at 35° C.) [mg/L] | MIC ([4]; C. albicans GC 3066 (Yeast), 18 hours at 35° C.) [mg/L] | MIC ([6]; M. catarrhalis GC 6907* (clinical), 18 hours at 35° C.) [mg/L]
1 | CCC(C)C1NC(=O)C(C(C)O)NC(=O)CNC(=O)C(CC(=O)O)NC(=O)CNC(=O)C(CC(=O)O)NC(=O)CNC(=O)C2CCCCN2C(=O)C(NC(=O)C(CC(=O)O)NC(=O)/C=C/CCCCCCCCC(C)C)CNC(=O)C2CCCN2C1=O (stereo not drawn) [AW998C] (X1-D[Dap][Pip]GDGDGTIP; lactam 2-C; configuration not given here) | > 128 | 8 (≈ 6.49 µM) | 64 (≈ 51.9 µM) | 128 (≈ 104 µM) | 64 (≈ 51.9 µM) | 128 (≈ 104 µM) | > 128 | > 128 | > 128 | 128 (≈ 104 µM) | 64 (≈ 51.9 µM) | > 128 | 128 (≈ 104 µM) | – | – | – | –
2 | CC(C)CCCCCCCCC/C=C/C(=O)NC(CC(=O)O)C(=O)NC1CNC(=O)C2CCCN2C(=O)C(C(C)C)NC(=O)C(C(C)O)NC(=O)CNC(=O)C(CC(=O)O)NC(=O)CNC(=O)C(CC(=O)O)NC(=O)CNC(=O)C2CCCCN2C1=O (stereo not drawn) [AW998D] ({Tetradecenoyl(2E,13-Me)}-D[Dap][Pip]GDGDGTVP; lactam 2-C; configuration not given here) | > 128 | 16 (≈ 13 µM) | 128 (≈ 104 µM) | 128 (≈ 104 µM) | 128 (≈ 104 µM) | 128 (≈ 104 µM) | > 128 | > 128 | > 128 | 128 (≈ 104 µM) | 128 (≈ 104 µM) | > 128 | 128 (≈ 104 µM) | – | – | – | –
3 | CCC(C)C1NC(=O)C(C(C)O)NC(=O)CNC(=O)C(CC(=O)O)NC(=O)CNC(=O)C(CC(=O)O)NC(=O)CNC(=O)C2CCCCN2C(=O)C(NC(=O)C(CC(=O)O)NC(=O)/C=C/CCCCCCCCCC(C)C)CNC(=O)C2CCCN2C1=O (stereo not drawn) [AW998A] ({Tetradecenoyl(2E,13-Me)}-D[Dap][Pip]GDGDGTIP; lactam 2-C; configuration not given here) | – | 4 (≈ 3.21 µM) | 2 (≈ 1.6 µM) | 32 (≈ 25.7 µM) | 8 (≈ 6.41 µM) | 32 (≈ 25.7 µM) | – | 32 (≈ 25.7 µM) | – | 16 (≈ 12.8 µM) | 8 (≈ 6.41 µM) | – | 64 (≈ 51.3 µM) | > 128 | > 128 | 128 (≈ 103 µM) | > 128
